Assay results from patent US20220340542A1, “SALTS OF OMECAMTIV MECARBIL AND SOLID FORMS THEREOF” (SYNTHON B.V., priority 2019, published 2022).
Counter-ions that a name gives are not always drawn.

Key:
[1] = Solid form stability when kept at elevated temperature and relative humidity; type: physicochemical; settings: 70% to 100% relative humidity, between 20 and 40 days
Method: The Form II can be characterized by XRPD pattern having 2θ values 5.0°, 9.3° and 16.5° degrees 2 theta (f 0.2 degrees 2 theta). The solid Form II can be also characterized by XRPD pattern having 2θ values 5.0°, 9.3°, 16.5°, 18.6° and 24.6° degrees 2 theta (±0.2 degrees 2 theta). The solid form can be further characterized by XRPD pattern described in the following table:
The Form III can be characterized by XRPD pattern having […] 14.3°, 19.3° and 25.8° degrees 2 theta (±0.2 degrees 2 theta). The solid […] can be also characterized by XRPD pattern having 2θ values 5.4°, 7.5°, 14.3°, 19.3° and 25.8° degrees 2 theta (±0.2 degrees 2 theta). The solid form can be further characterized by XRPD pattern described in the following table: […]

[2] = Solubility of Omecamtiv mecarbil salts in water solution (aqueous buffer) at different pH; type: physicochemical; settings: for Category of solubility (Descriptive Term): USP / Ph. Eur. descriptive terms; for Solubility in comparison with Omecamtiv mecarbil dihydrochloride monohydrate salt: water solution at pH 1.2, 4.5 and 6.8
Method: The solubility of prepared salts was tested in water solution at different pH (1.2, 4.5 and 6.8) and compared to Omecamtiv mecarbil dihydrochloride monohydrate salt prepared according to a procedure disclosed in WO2006009726 application. It can be concluded that solubilities of Omecamtiv mecarbil maleic acid salt, Form A, Omecamtiv mecarbil fumaric acid (1:1), Form I, Omecamtiv mecarbil malonic acid (1:1), Form I, Omecamtiv mecarbil adipic acid (1:1.5), Form I, Omecamtiv mecarbil sulfuric acid (1:1), Forms I, II and III salts are lower in comparison with Omecamtiv mecarbil dihydrochloride monohydrate salt.

SMILES	Solid form transformation on storage ([1]; temperature between 40° C. and 80° C.)	Category of solubility (Descriptive Term) ([2]; aqueous buffer pH 1.2)	Category of solubility (Descriptive Term) ([2]; aqueous buffer pH 4.5)	Category of solubility (Descriptive Term) ([2]; aqueous buffer pH 6.8)	Solubility in comparison with Omecamtiv mecarbil dihydrochloride monohydrate salt ([2]; Form I)	Solid form transformation on storage ([1]; temperature between 40° C. and 70° C.)	Solubility in comparison with Omecamtiv mecarbil dihydrochloride monohydrate salt ([2]; Form A)	Solubility in comparison with Omecamtiv mecarbil dihydrochloride monohydrate salt ([2]; listed as Omecamtiv mecarbil sulfuric acid (1:1), Forms I, II and III)
COC(=O)N1CCN(Cc2cccc(NC(=O)Nc3ccc(C)nc3)c2F)CC1 [Omecamtiv mecarbil sulfuric acid salt]	transformed to Omecamtiv mecarbil sulfuric acid salt, Form III	–	–	–	–	–	–	–
COC(=O)N1CCN(Cc2cccc(NC(=O)Nc3ccc(C)nc3)c2F)CC1 [Salt with HC1, Omecamtiv mecarbil dihydrochloride monohydrate salt, reference compound]	–	Freely soluble ((100-1000 mg/mL))	Freely soluble ((100-1000 mg/mL))	Freely soluble ((100-1000 mg/mL))	–	–	–	–
COC(=O)N1CCN(Cc2cccc(NC(=O)Nc3ccc(C)nc3)c2F)CC1 [Salt with adipic acid (1:1.5), Form I, Omecamtiv mecarbil adipic acid (1:1.5) salt]	–	Sparingly soluble ((10-33 mg/mL))	Sparingly soluble ((10-33 mg/mL))	Very slightly soluble ((0.1-1 mg/mL))	lower	–	–	–
COC(=O)N1CCN(Cc2cccc(NC(=O)Nc3ccc(C)nc3)c2F)CC1 [Salt with fumaric acid (1:1), Form I, Omecamtiv mecarbil fumaric acid (1:1) salt]	–	Very slightly soluble ((0.1-1 mg/mL))	Sparingly soluble ((10-33 mg/mL))	Sparingly soluble ((10-33 mg/mL))	lower	transformed to Omecamtiv mecarbil fumaric acid (1:1), Form II	–	–
COC(=O)N1CCN(Cc2cccc(NC(=O)Nc3ccc(C)nc3)c2F)CC1 [Salt with fumaric acid (1:2), Form I, Omecamtiv mecarbil fumaric acid (1:2) salt]	–	Freely soluble ((100-1000 mg/mL))	Freely soluble ((100-1000 mg/mL))	Freely soluble ((100-1000 mg/mL))	comparable	–	–	–
COC(=O)N1CCN(Cc2cccc(NC(=O)Nc3ccc(C)nc3)c2F)CC1 [Salt with maleic acid, Form A, Omecamtiv mecarbil maleic acid salt]	–	Sparingly soluble ((10-33 mg/mL))	Sparingly soluble ((10-33 mg/mL))	Very slightly soluble ((0.1-1 mg/mL))	–	–	lower	–
COC(=O)N1CCN(Cc2cccc(NC(=O)Nc3ccc(C)nc3)c2F)CC1 [Salt with malonic acid (1:1), Form I, Omecamtiv mecarbil malonic acid (1:1) salt]	–	Sparingly soluble ((10-33 mg/mL))	Sparingly soluble ((10-33 mg/mL))	Very slightly soluble ((0.1-1 mg/mL))	lower	–	–	–
COC(=O)N1CCN(Cc2cccc(NC(=O)Nc3ccc(C)nc3)c2F)CC1 [Salt with sulfuric acid (1:1), Forms I, II and III] [Omecamtiv mecarbil sulfuric acid salt]	–	Sparingly soluble ((10-33 mg/mL))	Sparingly soluble ((10-33 mg/mL))	Sparingly soluble ((10-33 mg/mL))	–	–	–	lower
